# In patent publication US11246934B2, “Nanoparticles and methods for preparation thereof” (B.G. Negev Technologies & Applications Ltd. at Ben-Gurion …, priority 2015, dated 2022):
# Structures can show the parent of a compound that is named as a salt.
# How the values were obtained:
# [1] = test system: MCF-7 cells (cell line of breast cancer); assay: MTT cytotoxicity assay in MCF-7 cell line; type: cell-based; conditions: MCF-7, at 1 mg/ml
# Method: The direct effect of curcumin and doxorubicin on the viability of cultured cells was assessed in vitro using the MCF-7 cells (cell line of breast cancer). […] Fresh cell medium was then prepared with test compounds in appropriate dilutions (equivalent to their concentrations as determined by HPLC). Cell growth after 48 h was assayed by MTT assay [3-(4,5-Dimethylthiazol-2-yl)-2,5-diphenyltetrazolium bromide, Sigma-Aldrich] and was evaluated by measuring the absorbance at 540 nm after 3 h of incubation in a medium containing 0.5 mg/ml MTT (Sunrise™ absorbance plate reader, TECAN). […] FIG. 13C presents dose response behavior of DOX-loaded and unloaded NPs vs. solutions at various concentrations after 24-h and 48-h incubation.
# [2] = test system: melanoma B16F0 cells; assay: B16F0 melanoma tumor model in mice; conditions: day 18 of treatment, 0.5 mg/kg s.c. twice a week
# [3] = Dynamic dialysis of chloramphenicol, apparent dialysis bag permeability constant; type: physicochemical; conditions: dialysis bag 10K MWCO, NaCl 0.9% w/v
# Method: The amount of drug released from the NPs was determined by a dynamic dialysis technique monitoring the drug concentration in the receiver solution (i.e., outer solution surrounding a dialysis bag). The method is based on the assumption that drug is first released from the NPs into the donor solution (i.e., the dissolution medium inside the dialysis bag). Subsequently, the drug can diffuse through the dialysis bag from the donor to the receiver.
# A sample of 3 ml of the NP dispersion (1:1 diluted with saline) was introduced into a dialysis bag (SnakeSkin Dialysis Tubing, 10K MWCO, 22 mm, Thermo Fisher Scientific, Rockford, USA). The sample was dialyzed against 60 ml of saline solution (NaCl solution, 0.9%, w/v) for 7 hours. The receiver solution was agitated by magnetic stirring throughout the experimental procedure. Samples of 200 μl were withdrawn from the receiver solution at predetermined time intervals and their drug concentrations were measured by HPLC.
# The apparent dialysis bag permeability constant (k′) was calculated according to the method described in ‘Materials and Methods’ section 2.6. […]
# [4] = topically applied, eye drops; cited from earlier work
Compound,cytotoxicity [1],survival [2] [%],apparent permeability constant (k′) [3] [h⁻¹],bioavailability [4],half-life [4] [h]
"COc1cccc2c1C(=O)c1c(O)c3c(c(O)c1C2=O)C[C@@](O)(C(=O)CO)C[C@@H]3O[C@H]1C[C@H](N)[C@H](O)[C@H](C)O1 [DOX-HCl solution, doxorubicin]",highly cytotoxic,58,–,–,–
O=C(N[C@H](CO)[C@H](O)c1ccc([N+](=O)[O-])cc1)C(Cl)Cl [chloramphenicol],–,–,1.207 ± 0.018,1-10%,1.5 to 5
